Laboratory results reported in the supplement of paper PMC8566230.

Key:
Test in all cases: cell viability with growth factor relative to same drug with BSA mock; higher = growth factor protects cells from drug (more viable cells)
Conditions in all cases: treatment time: 6 days
[1] = system: SH-SY5Y
Method: (§1)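 Six neuroblastoma cell lines were treated with a kinase inhibitor or vincristine at a fixed dose (70–90% lethal) plus a growth factor (100 ng/ml) or 0.1% BSA mock for 72 h. Drugs and growth factors were then renewed for another 72 h (6 days total). Viability was read by XTT in triplicate and normalised to the same drug plus BSA (=100%).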

[2] = system: SK-N-SH
Method: as §1

[3] = system: SK-N-BE
Method: as §1

[4] = system: LAN-1
Method: as §1

[5] = system: SK-N-AS
Method: as §1

[6] = system: Kelly
Method: as §1

CC[C@]1(O)C[C@H]2CN(CCc3c([nH]c4ccccc34)[C@@](C(=O)OC)(c3cc4c(cc3OC)N(C=O)[C@H]3[C@@](O)(C(=O)OC)[C@H](OC(C)=O)[C@]5(CC)C=CCN6CC[C@]43[C@@H]65)C2)C1 [vincristine]
cell viability with growth factor [%]
Conditions | added growth factor (100 ng/ml): BDNF | added growth factor (100 ng/ml): EPO | added growth factor (100 ng/ml): HGF | added growth factor (100 ng/ml): IGF-1 | added growth factor (100 ng/ml): NGF | added growth factor (100 ng/ml): SCF
[1], drug concentration: 25 nM | 110 | 149 | 108 | 110 | 208 | 97.4
[2], drug concentration: 5 nM | 98 | 152 | 97.7 | 142 | 129 | 88.1
[3], drug concentration: 20 nM | 98 | 171 | 97.5 | 116 | 137 | 128
[4], drug concentration: 5 nM | 84.5 | 151 | 116 | 99.3 | 92.4 | 116
[5], drug concentration: 5 nM | 95 | 78.5 | 124 | 219 | 88.2 | 97.3
[6], drug concentration: 5 nM | 86.8 | 89.5 | 95.4 | 200 | 70.2 | 99.2

COc1cc2nccc(Oc3ccc(NC(=O)C4(C(=O)Nc5ccc(F)cc5)CC4)cc3)c2cc1OC [cabozantinib]
cell viability with growth factor [%]
Conditions | added growth factor (100 ng/ml): BDNF | added growth factor (100 ng/ml): EPO | added growth factor (100 ng/ml): HGF | added growth factor (100 ng/ml): IGF-1 | added growth factor (100 ng/ml): NGF | added growth factor (100 ng/ml): SCF
[1], drug concentration: 2.5 uM | 114 | 127 | 151 | 139 | 183 | 81.1
[2], drug concentration: 5 uM | 153 | 110.1 | 94.5 | 59.6 | 153 | 124
[3], drug concentration: 7.5 uM | 278 | 200 | 248 | 316 | 191 | 251
[4], drug concentration: 5 uM | 125 | 160 | 168 | 123 | 161 | 93.5
[5], drug concentration: 7.5 uM | 124 | 99 | 108 | 84.9 | 95.9 | 96.9
[6], drug concentration: 5 uM | 109 | 118 | 84.5 | 73 | 133 | 101

C[C@@H](Oc1cc(-c2cnn(C3CCNCC3)c2)cnc1N)c1c(Cl)ccc(F)c1Cl [crizotinib]
cell viability with growth factor [%]
Conditions | added growth factor (100 ng/ml): BDNF | added growth factor (100 ng/ml): EPO | added growth factor (100 ng/ml): HGF | added growth factor (100 ng/ml): IGF-1 | added growth factor (100 ng/ml): NGF | added growth factor (100 ng/ml): SCF
[1], drug concentration: 2.5 uM | 118 | 137 | 174 | 101 | 184 | 120
[2], drug concentration: 1 uM | 122 | 111 | 82.7 | 90.8 | 210 | 95.3
[3], drug concentration: 5 uM | 422 | 123 | 88.9 | 291 | 173 | 121
[4], drug concentration: 2.5 uM | 232 | 241 | 227 | 186 | 359 | 142
[5], drug concentration: 5 uM | 103 | 89.6 | 106 | 130 | 73.9 | 106
[6], drug concentration: 1 uM | 352 | 365 | 112 | 176 | 300 | 107

Cc1ccc(NC(=O)c2ccc(CN3CCN(C)CC3)cc2)cc1Nc1nccc(-c2cccnc2)n1 [imatinib]
cell viability with growth factor [%]
Conditions | added growth factor (100 ng/ml): BDNF | added growth factor (100 ng/ml): EPO | added growth factor (100 ng/ml): HGF | added growth factor (100 ng/ml): IGF-1 | added growth factor (100 ng/ml): NGF | added growth factor (100 ng/ml): SCF
[1], drug concentration: 25 uM | 94.8 | 166 | 106 | 99.5 | 207 | 111
[2], drug concentration: 25 uM | 106 | 121 | 143 | 110 | 110 | 98.2
[3], drug concentration: 25 uM | 103 | 217 | 103 | 124 | 179 | 76.9
[4], drug concentration: 20 uM | 101 | 121 | 86.4 | 117 | 135 | 99.4
[5], drug concentration: 20 uM | 104 | 103 | 123 | 134 | 111 | 112
[6], drug concentration: 25 uM | 165 | 184 | 167 | 145 | 125 | 134

Cc1nc(Nc2ncc(C(=O)Nc3c(C)cccc3Cl)s2)cc(N2CCN(CCO)CC2)n1 [dasatinib]
cell viability with growth factor [%]
Conditions | added growth factor (100 ng/ml): BDNF | added growth factor (100 ng/ml): EPO | added growth factor (100 ng/ml): HGF | added growth factor (100 ng/ml): IGF-1 | added growth factor (100 ng/ml): NGF | added growth factor (100 ng/ml): SCF
[1], drug concentration: 25 nM | 131 | 320 | 97 | 135 | 217 | 169
[2], drug concentration: 500 nM | 99.7 | 126 | 151 | 205 | 116 | 113
[3], drug concentration: 500 nM | 90.9 | 130 | 111 | 185 | 83.6 | 146
[4], drug concentration: 5 nM | 93.1 | 228 | 129 | 138 | 273 | 97.6
[5], drug concentration: 50 nM | 117 | 108 | 134 | 235 | 104 | 82.7
[6], drug concentration: 500 nM | 86.8 | 238 | 198 | 292 | 164 | 95.8

CNC(=O)c1ccccc1Sc1ccc2c(/C=C/c3ccccn3)n[nH]c2c1 [axitinib]
cell viability with growth factor [%]
Conditions | added growth factor (100 ng/ml): BDNF | added growth factor (100 ng/ml): EPO | added growth factor (100 ng/ml): HGF | added growth factor (100 ng/ml): IGF-1 | added growth factor (100 ng/ml): NGF | added growth factor (100 ng/ml): SCF
[1], drug concentration: 2.5 uM | 104 | 138 | 95.7 | 80.7 | 137 | 107
[2], drug concentration: 10 uM | 109.9 | 177 | 96.8 | 60 | 118 | 83.5
[3], drug concentration: 5 uM | 103 | 142 | 100 | 255 | 122 | 149
[4], drug concentration: 5 uM | 112 | 173 | 93 | 98.5 | 159 | 117
[5], drug concentration: 5 uM | 95.7 | 101 | 85.5 | 48.7 | 96.1 | 99
[6], drug concentration: 10 uM | 143 | 177 | 94.1 | 57.3 | 148 | 106
